According to patent publication US20170157051A1, “SOLUBILITY ENHANCEMENT FOR HYDROPHOBIC DRUGS” (Freund Pharmatec Ltd., priority 2013, published 2017):
Where two headings read alike, the source gives them in different places.

Key:
[1] = Dissolution profile in biorelevant media (FaSSIF / FaSSGF), paddle apparatus; assay type: physicochemical; conditions: FaSSIF (fenofibrate, nifedipine, nimodipine, nabumetone) or FaSSGF (ibuprofen, gemfibrozil); 900 ml, 37° C., 75 rpm
Description: Dissolution profile: The drug release profiles of the above formulations and the reference products (TRICOR ® 48 mg Fenofibrated tablets and Buplex® 200 mg Ibuprofen tablets) was tested in biorelevant dissolution media; using Fasted State Simulated Intestinal Fluid (FaSSIF) for Tricor® and Fasted State Simulated Gastric Fluid (FaSSGF) for Buplex®. USP […] (Paddle) was used.
Media temperature: 37° C.;
Paddle rotation speed: 75 rpm;
The method used to measure the dissolution rate is as described under ‘dissolution profile’ in the previous example. […] All other conditions remained the same.

[2] = cited from earlier work

CC(C)Cc1ccc(C(C)C(=O)O)cc1 (stereo not shown) [Ibuprofen, iso-butyl-propanoic-phenolic acid]
% drug dissolved / rate and extent of dissolution versus marketed product [1]: 1:2.7 ratio of Maisine:Kolliphor showed higher dissolution than a 1:1.8 ratio
solubility in water [2]: Less than 1 mg/ml

COc1ccc2cc(CCC(C)=O)ccc2c1 [Nabumetone]
solubility in water (in words) [2]: practically insoluble in water

Cc1ccc(C)c(OCCCC(C)(C)C(=O)O)c1 [Gemfibrozil]
solubility in water ([2]; at 25° C.): < 1000 µg/mL
